Data: ChEMBL document CHEMBL1139145, “Inhibition of cancer cell adhesion by heterochiral Pro-containing RGD mimetics” (Bioorg Med Chem Lett, 2007)
pIC50: −log10 of the molar value. Residues, ends and D or L forms follow the SMILES beside them.

target: Integrin alpha-V/beta-3 (Homo sapiens, UniProt P05106+P06756); experiment: Inhibition of integrin alpha-v-beta-3 receptor-mediated human SK-MEL-24 cell adhesion to fibronectin by fluorimetry; format: protein-complex assay
Sequence (P05106 27-788 limits assumed): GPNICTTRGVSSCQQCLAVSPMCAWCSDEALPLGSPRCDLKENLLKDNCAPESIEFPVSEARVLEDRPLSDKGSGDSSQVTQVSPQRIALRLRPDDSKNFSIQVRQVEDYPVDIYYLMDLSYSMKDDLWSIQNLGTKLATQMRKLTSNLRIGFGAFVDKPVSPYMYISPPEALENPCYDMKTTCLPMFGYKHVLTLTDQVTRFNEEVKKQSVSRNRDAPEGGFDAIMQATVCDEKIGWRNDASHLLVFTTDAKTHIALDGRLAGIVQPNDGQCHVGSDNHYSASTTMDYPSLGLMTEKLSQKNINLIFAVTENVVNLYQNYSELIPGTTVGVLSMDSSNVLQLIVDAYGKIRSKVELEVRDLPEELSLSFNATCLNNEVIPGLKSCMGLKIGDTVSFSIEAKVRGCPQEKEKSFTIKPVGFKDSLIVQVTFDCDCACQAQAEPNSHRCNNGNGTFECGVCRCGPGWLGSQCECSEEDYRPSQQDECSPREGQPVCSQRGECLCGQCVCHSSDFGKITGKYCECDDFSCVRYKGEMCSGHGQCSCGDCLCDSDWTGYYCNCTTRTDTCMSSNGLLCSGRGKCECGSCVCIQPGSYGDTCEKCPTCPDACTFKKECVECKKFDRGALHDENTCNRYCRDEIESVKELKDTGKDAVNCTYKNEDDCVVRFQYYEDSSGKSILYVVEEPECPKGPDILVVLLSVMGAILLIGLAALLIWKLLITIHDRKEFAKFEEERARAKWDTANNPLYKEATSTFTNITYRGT
Sequence (P06756 31-889 limits assumed): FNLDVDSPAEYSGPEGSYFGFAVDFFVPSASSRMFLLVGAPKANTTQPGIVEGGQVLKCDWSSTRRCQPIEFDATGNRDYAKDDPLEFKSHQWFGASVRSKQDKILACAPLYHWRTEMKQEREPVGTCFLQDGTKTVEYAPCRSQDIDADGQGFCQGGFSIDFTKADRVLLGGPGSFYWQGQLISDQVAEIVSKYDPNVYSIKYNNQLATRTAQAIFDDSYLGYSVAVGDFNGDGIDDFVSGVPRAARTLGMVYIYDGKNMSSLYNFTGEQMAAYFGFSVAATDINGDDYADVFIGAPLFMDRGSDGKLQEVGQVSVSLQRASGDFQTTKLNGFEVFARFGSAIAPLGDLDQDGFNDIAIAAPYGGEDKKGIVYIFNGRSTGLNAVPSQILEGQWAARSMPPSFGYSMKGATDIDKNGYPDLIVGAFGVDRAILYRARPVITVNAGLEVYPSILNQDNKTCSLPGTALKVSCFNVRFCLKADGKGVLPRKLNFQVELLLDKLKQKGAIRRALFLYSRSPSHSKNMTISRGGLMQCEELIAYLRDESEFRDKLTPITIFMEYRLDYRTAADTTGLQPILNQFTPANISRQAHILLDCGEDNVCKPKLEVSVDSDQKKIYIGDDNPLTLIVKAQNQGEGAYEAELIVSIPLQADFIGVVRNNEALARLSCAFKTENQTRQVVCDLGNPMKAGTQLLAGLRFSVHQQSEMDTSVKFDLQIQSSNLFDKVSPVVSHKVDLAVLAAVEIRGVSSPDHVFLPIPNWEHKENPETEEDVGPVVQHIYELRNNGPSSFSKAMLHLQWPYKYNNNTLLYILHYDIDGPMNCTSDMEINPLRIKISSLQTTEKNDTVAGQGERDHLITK
Sequence (P06756 891-1048 limits assumed): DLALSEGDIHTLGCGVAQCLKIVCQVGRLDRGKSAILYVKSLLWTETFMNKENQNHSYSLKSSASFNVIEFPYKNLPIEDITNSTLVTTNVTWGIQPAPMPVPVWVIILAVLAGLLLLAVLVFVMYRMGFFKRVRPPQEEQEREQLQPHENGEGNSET

pIC50 | Structure (SMILES)
7.70 | CC(=O)N[C@@H](CC(=O)O)C(=O)N[C@@H](CCCN=C(N)N)C(=O)NCC(=O)N[C@@H](CC(=O)O)C(=O)N[C@@H](CO)C(=O)O (Ac-DRGDS-OH)
4.70 | CCCNC(=O)[C@H](CC(=O)O)NC(=O)[C@H]1CCCN1C(=O)CCCN=C(N)N
5.59 | N=C(N)NCCCC(=O)N1CCC[C@@H]1C(=O)N[C@@H](CCC(=O)O)C(=O)NCc1ccccc1
7.59 | N=C(N)NCCCC(=O)N1CCC[C@@H]1C(=O)N[C@@H](CC(=O)O)C(=O)NCc1ccccc1
6.82 | Cc1ccc(S(=O)(=O)N[C@@H](CCCN=C(N)N)C(=O)N2CCC[C@@H]2C(=O)N[C@@H](CC(=O)O)C(=O)NCc2ccccc2)cc1
3.64 | NC(N)=NCCCCC(=O)N1CCC[C@@H]1C(=O)N[C@@H](CC(=O)O)C(=O)NCc1ccccc1
4.00 | Cc1ccc(S(=O)(=O)N[C@@H](CCCNC(=N)N)C(=O)N2CCC[C@H]2C(=O)N[C@@H](CC(=O)O)C(=O)NCc2ccccc2)cc1
7.46 | N=C(N)NCCC(=O)N1CCC[C@@H]1C(=O)N[C@@H](CCC(=O)O)C(=O)NCc1ccccc1
< 4.00 | N=C(N)NCCC(=O)N1CCC[C@@H]1C(=O)N[C@@H](CC(=O)O)C(=O)NCc1ccccc1
5.92 | NC(N)=NCCCC(=O)N1CCC[C@@H]1C(=O)NCCC(=O)O
